Consider 16 molecules from paper PMC8307317, “Point-Substitution of Phenylalanine Residues of 26RFa Neuropeptide: A Structure-Activity Relationship Study” (Molecules, 2021).

The term EC50 denotes the concentration giving half of the maximal effect. The term inhibition denotes the percentage by which the read-out fell short of the control. By IC50 is commonly meant the concentration that gives 50% inhibition.

Experiment [1] concerns the target T1, human QRFPR (hQRFPR) (Homo sapiens, UniProt Q96P65).
T1 construct: expressed in transfected cells; host or cells: CHO cells, stably transfected with hQRFPR (G418 selection) and Gα16 (hygromycin B selection)
T1 sequence (Q96P65 1-431): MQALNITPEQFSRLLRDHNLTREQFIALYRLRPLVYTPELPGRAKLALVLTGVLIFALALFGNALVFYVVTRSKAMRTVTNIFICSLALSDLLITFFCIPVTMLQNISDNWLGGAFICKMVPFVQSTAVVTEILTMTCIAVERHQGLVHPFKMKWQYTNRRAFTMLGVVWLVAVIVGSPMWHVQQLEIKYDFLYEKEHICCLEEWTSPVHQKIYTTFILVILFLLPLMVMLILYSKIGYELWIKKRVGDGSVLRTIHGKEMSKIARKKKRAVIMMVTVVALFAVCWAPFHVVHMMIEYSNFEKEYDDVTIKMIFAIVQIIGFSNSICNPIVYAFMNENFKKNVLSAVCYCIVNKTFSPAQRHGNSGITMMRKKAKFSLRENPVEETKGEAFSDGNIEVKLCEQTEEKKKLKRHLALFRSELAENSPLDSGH
The experiment can be described thus: Calcium mobilization assay, agonist mode ([Ca2+]i in Gα16-hQRFPR-transfected CHO cells). The experiment is classed as cell-based. The protocol:
(§1) Stably transfected hQRFPR CHO cells were obtained as previously described. The cells were maintained in F-12 nutrient mixture (Ham-F12) medium supplemented with 10% fetal bovine serum, 2 mM glutamine, and penicillin-streptomycin. Expression of Gα16 cells was maintained using selection antibiotic hygromycin B (200 µg/mL) and that of hQRFPR using geneticin G418 (500 µg/mL) (Life Technologies, Villebon-Sur-Yvette, France) in a humidified 5% CO2 atmosphere at 37 °C.
(§2) Changes in intracellular Ca^2+ concentrations induced by 26RFa(20–26) analogs in CHO-Gα16-hQRFPR-transfected cells were measured on a benchtop scanning fluorometer Flexstation III (Molecular Devices, Sunnyvale, CA, USA) as previously described. Briefly, 96-well assay black plates with clear bottoms (Corning international, Avon, France) were seeded at a density of 40,000 cells/well 24 h prior to assay. For profiling agonistic experiments, cells were loaded with 2 µM Fluo-4 acetoxymethyl ester (AM) (Invitrogen) for 1 h in the presence of 0.01% pluronic acid, washed thrice, and incubated for 30 min with standard HBSS containing 2.5 mM probenecid and 5 mM HEPES. Compounds to be tested were added at final concentrations ranging from 10^−11 to 10^−5 M in HBSS, and the fluorescence intensity was measured during 3 min. To evaluate the antagonistic potency of the test compounds, cells were incubated with each compound over 15 min after Fluo-4 AM loading. Then, during fluorescence recording, a pulse of 26RFa was administered at a final concentration of 10^−7 M. After subtraction of the mean fluorescence background, the baseline was normalized to 100%. Fluorescence peak values were determined for each concentration of compound.
(§3) Calcium experiments were performed in triplicate, and data, expressed as mean ± SEM of at least three distinct experiments, were analyzed with the Prism 8.0 software (Graphpad Software, San Diego, CA, USA). EC50 and the IC50 values were determined from concentration–response curves using a sigmoidal dose–response fit with variable slope from at least three independent determinations. Differences between 26RFa(20–26) and analog activities were analyzed by the Mann–Whitney test. p values < 0.05 were considered significant.
(Calcium flux is commonly read through the fluorescence of an indicator in the cells.)

Experiment [2] deals with T1, human QRFPR (hQRFPR). Kind of experiment: Calcium mobilization assay, antagonist mode (26RFa-evoked [Ca2+]i increase in Gα16-hQRFPR-transfected CHO cells). The experiment is classed as cell-based. As to conditions: for inhibition at 10 µM: CHO, read-out: Imax (inhibition of 26RFa-evoked response); for inhibition at 10 µM / Imax (inhibition of 26RFa-evoked response): Inhibition at a maximal concentration of 10^−5 M, 10^−7 M 26RFa. As to the method:
as §1, §2, §3

Experiment [3] has as its target T1, human QRFPR (hQRFPR). On the set-up: method as in PMID 22800498. The settings on record: cited from earlier work.
Setting [4] is: [Ca2+]i mobilization in Gα16-hQRFPR-transfected CHO cells, mean of at least three independent experiments performed in triplicate, read-out: EC50.
The mark [5] stands for this setting: single prototype curve, triplicate, 10^−7 M 26RFa-evoked response, read-out: IC50 calculated from representative dose–inhibition curves (Figure 4).

Where two headings read alike, the source gives them in different places. Non-standard residues stand in square brackets, D forms with d. Residues, ends and D or L forms follow the SMILES beside them. No end group written: not given here. *: point of attachment. Phe(4-tBu) = CC(C)(C)c1ccc(C[C@H](N)C(=O)O)cc1; X7 = O=C(C(c1ccc(C(F)(F)F)cc1)N1CCNCC1)*; X4 = COc1ccc(C(C(=O)*)N2CCNCC2)cc1OC; X5 = COc1ccc(C(C(=O)*)N2CCNCC2)cc1; X8 = O=C(C(c1ccccc1F)N1CCNCC1)*; X1 = O=C(C(c1cccnc1)N1CCNCC1)*

With `CC(C)(C)c1ccc(C[C@H](NC(=O)CNC(=O)CN)C(=O)N[C@@H](CO)C(=O)N[C@@H](Cc2ccccc2)C(=O)N[C@@H](CCCNC(=N)N)C(=O)N[C@@H](Cc2ccccc2)C(N)=O)cc1` [Compound 11, [ptBuPhe^22]26RFa(20–26)] (H-GG[Phe(4-tBu)]SFRF-NH2), the EC50 in experiment [1] (setting [4]) was more than 10 µM. Besides, in experiment [2], the inhibition at 10 µM lay within 45 to 46% and the “Imax (inhibition of 26RFa-evoked response)” value is recorded as 45%. Also, the IC50 in experiment [2] (inhibition of 10^−7 M 26RFa-evoked [Ca2+]i response, compounds inactive as agonists, ND = not detectable, read-out: IC50) stood at 6.22 µM. In experiment [2] (setting [5]), the IC50 is 4.49 µM.

As to `N=C(N)NCCC[C@H](NC(=O)[C@H](Cc1ccccc1)NC(=O)[C@H](CO)NC(=O)[C@H](Cc1ccccc1)NC(=O)CNC(=O)CN)C(=O)N[C@H](Cc1c[nH]c2ccccc12)C(N)=O` [Compound 39, [DTrp^26]26RFa(20–26)] (H-GGFSFR[dW]-NH2), in experiment [2], the inhibition at 10 µM fell in the range of 45 to 46% and the “Imax (inhibition of 26RFa-evoked response)” value is 46%. Besides, the concentration for half-maximal inhibition (IC50) in experiment [2] (setting [5]) was 5.84 µM.

For `N=C(N)NCCC[C@H](NC(=O)[C@H](Cc1ccccc1)NC(=O)[C@H](CO)NC(=O)C(c1ccccc1F)N1CCNCC1)C(=O)N[C@@H](Cc1ccccc1)C(N)=O` (stereo partly shown) [Compound 56, [Cmpi(2-FPhg)^22]26RFa(22–26)] (X8-SFRF-NH2), the EC50 in experiment [1] (setting [4]) is more than 10 µM.

Regarding `N=C(N)NCCC[C@H](NC(=O)[C@H](Cc1ccccc1)NC(=O)[C@H](CO)NC(=O)C(c1ccc(C(F)(F)F)cc1)N1CCNCC1)C(=O)N[C@@H](Cc1ccccc1)C(N)=O` (stereo partly shown) [Compound 57, [Cmpi(4-TfmPhg)^22]26RFa(22–26)] (X7-SFRF-NH2), the EC50 in experiment [1] (setting [4]) is more than 10 µM.

As to `N=C(N)NCCC[C@H](NC(=O)[C@H](Cc1ccccc1)NC(=O)[C@H](CO)NC(=O)C(c1ccc(C(F)(F)F)cc1)N1CCNCC1)C(=O)N[C@@H](Cc1ccccc1)C(N)=O` (stereo partly shown) [Compound 58, [Cmpi(4-TfmPhg)^22]26RFa(22–26)] (X7-SFRF-NH2), in experiment [1] (setting [4]), the EC50 was more than 10 µM.

For the molecule `COc1ccc(C(C(=O)N[C@@H](CO)C(=O)N[C@@H](Cc2ccccc2)C(=O)N[C@@H](CCCNC(=N)N)C(=O)N[C@@H](Cc2ccccc2)C(N)=O)N2CCNCC2)cc1` (stereo partly shown) [Compound 59, [Cmpi(4-MeOPhg)^22]26RFa(22–26)] (X5-SFRF-NH2), the EC50 in experiment [1] (setting [4]) is more than 10 µM.

For `COc1ccc(C(C(=O)N[C@@H](CO)C(=O)N[C@@H](Cc2ccccc2)C(=O)N[C@@H](CCCNC(=N)N)C(=O)N[C@@H](Cc2ccccc2)C(N)=O)N2CCNCC2)cc1` (stereo partly shown) [Compound 60, [Cmpi(4-MeOPhg)^22]26RFa(22–26)] (X5-SFRF-NH2), the EC50 in experiment [1] (setting [4]) is more than 10 µM.

On to `COc1ccc(C(C(=O)N[C@@H](CO)C(=O)N[C@@H](Cc2ccccc2)C(=O)N[C@@H](CCCNC(=N)N)C(=O)N[C@@H](Cc2ccccc2)C(N)=O)N2CCNCC2)cc1OC` (stereo partly shown) [Compound 61, [Cmpi(3,4-diMeOPhg)^22]26RFa(22–26)] (X4-SFRF-NH2), for which, in experiment [1] (setting [4]), the concentration giving a half-maximal response (EC50) was more than 10 µM.

With `COc1ccc(C(C(=O)N[C@@H](CO)C(=O)N[C@@H](Cc2ccccc2)C(=O)N[C@@H](CCCNC(=N)N)C(=O)N[C@@H](Cc2ccccc2)C(N)=O)N2CCNCC2)cc1OC` (stereo partly shown) [Compound 62, [Cmpi(3,4-diMeOPhg)^22]26RFa(22–26)] (X4-SFRF-NH2), the concentration giving a half-maximal response (EC50) in experiment [1] (setting [4]) is more than 10 µM.

Regarding `N=C(N)NCCC[C@H](NC(=O)[C@H](Cc1ccccc1)NC(=O)[C@H](CO)NC(=O)C(c1cccnc1)N1CCNCC1)C(=O)N[C@@H](Cc1ccccc1)C(N)=O` (stereo partly shown) [Compound 63, [Cmpi(3-Pyg)^22]26RFa(22–26)] (X1-SFRF-NH2), in experiment [1] (setting [4]), the EC50 was found to be 4.99 µM.

Turning to `N=C(N)NCCC[C@H](NC(=O)[C@H](Cc1ccccc1)NC(=O)[C@H](CO)NC(=O)C(c1cccnc1)N1CCNCC1)C(=O)N[C@@H](Cc1ccccc1)C(N)=O` (stereo partly shown) [Compound 64, [Cmpi(3-Pyg)^22]26RFa(22–26)] (X1-SFRF-NH2), the concentration giving a half-maximal response (EC50) in experiment [1] (setting [4]) was more than 10 µM.

Regarding GGFSFRF-NH2 [Compound 1, 26RFa(20–26)], the EC50 in experiment [1] (single prototype curve, triplicate, basal [Ca2+]i mobilization, read-out: EC50 calculated from representative dose–response curves (Figure 3)) is 1.07 µM.

As for “GGFSFRW-NH2 [Compound 10, [Trp^26]26RFa(20–26)]”, the EC50 in experiment [1] (setting [4]) is 5.06 µM.

As for “GGFSWRF-NH2 [Compound 9, [Trp^24]26RFa(20–26)]”, in experiment [1] (setting [4]), the EC50 was 2.04 µM.

In the case of “GGWSFRF-NH2 [Compound 8, [Trp^22]26RFa(20–26)]”, the EC50 in experiment [1] (setting [4]) stood at 1.98 µM.

With [Cmpi^21]26RFa(21–26) [LV-2043], the “fold more potent than the reference heptapeptide 26RFa(20–26)” value in experiment [3] was 5 fold.
